Results published in US12133855B2, “Lipid-like nanocomplexes and uses thereof” (Trustees of Tufts College, priority 2018, dated 2024).

What was measured:
[1] = TEM size of lipidoid nanoparticles; type: physicochemical; details: TEM images of LNPs
Experimental: All chemicals used for lipidoids synthesis were purchased from Sigma-Aldrich without further purification unless otherwise noted. (−30)GFP-Cre recombinase, S. pyogenes Cas9 (spCas9) and sgRNA were generated following the protocols reported in Wang at al., Proc. Natl. Acad. Sci. USA, 2016, 113, 2868-2873 (“Wang”). HeLa-DsRed and GFP-HEK cells were cultured in Dulbecco's modified eagle's medium (DMEM, Sigma-Aldrich) with 10% fetal bovine serum (FBS, Sigma-Aldrich) and 1% penicillin-streptomycin (Gibco). All ^1H NMR spectra were recorded on a Bruker AVIII 500 MHz NMR spectrometer operated in the Fourier transform mode. Hydrodynamic size and polydispersity index of nanoparticles were measured by Zeta-PALS particle size analyzer (Brookhaven Instruments). The apparent pKa values of lipidoids were determined using 2-(p-toluidinynaphthalene-6-sulphonic acid) (TNS, Sigma-Aldrich) as fluorescent probe following the protocols reported in Heyes et al., J. Controlled Release, 2005, 107, 276-287. TEM measurements were performed on a FEI Technai Transmission Electron Microscope. Fluorescence images of tissue slices were obtained using BZ-X Analyzer fluorescence microscope.
The morphologies of LNPs were further studied by the transmission electron microscopy (TEM). […] Subsequently, the stability of LNPs thus prepared was examined by DLS and fluorescence measurements.
The morphologies of OCholB fully substituted LNPs were then examined by transmission electron microscopy (TEM). […] In contrast, the vesicular structures were not well-formed for 87-OCholB and 90-OCholB compared to their counterparts, and amorphous aggregates were observed instead.

Ai14 mice = assay: In vivo genome editing, intravenous injection, tdTomato expression; set-up: species or system mouse; details: day 14
Experimental: Similar to the in vitro transfection study, lipidoid nanoparticles were prepared for mRNA or protein loading and in vivo delivery. Ai14 mice were housed in a temperature and humidity controlled facility with a 12 h light/dark cycle. Three mice in each group were injected (intravenously or intramuscularly) with Cre mRNA-loaded or (−30)GFP-Cre protein-loaded LNPs formulations. Organs including heart, liver, spleen, lung and kidney from all groups were collected at day 10 (intramuscular injection) or 14 (intravenous injection) after injection. The tissues were fixed overnight in 4% paraformaldehyde (PFA) and dehydrated in 30% sucrose before being froze in OCT and sectioned into 10-15 μm slices. The slices were then collected and stained with DAPI for fluorescence imaging (BZ-X Analyzer fluorescence microscopy).
Cre-loxP system and transgenic Ai14 mouse model were used in the in vivo genome editing study. […] When the Cre recombinase mediated gene reorganization occurs, the STOP cassette could be removed, resulting in the expression of fluorescent tdTomato reporter protein.
The OCholB LNPs was further investigated if they can induce successful gene editing in vivo through a systemic administration pathway. At first, Ai14 mice (n=3) were injected through tail vein (intravenous (IV) injection) with (−30)GFP-Cre protein loaded LNPs at day 1 and 5 (50 μg protein for each injection; 100 μg in total), then sacrificed at day 14 for analysis (FIG. 17C). […] The heart, liver, spleen, lung and kidney from each group were collected and analyzed. […] Like most intravenous nano-therapeutics, the (−30)GFP-Cre protein complexed OCholB nanoparticles injected through tail vein would travel first to the heart, and from there directly to the lung. The nanoparticle formulations (which may have complexed with serum proteins) could be easily trapped in the vasculature structures in the capillary bed of the lung, delaying or inhibiting the redistribution of LNPs to the liver, spleen and other organs. During the in vivo transport and redistribution process, some of the protein loaded LNPs may successfully enter into the cells in lung or spleen to induce the genome editing and tdTomato expression cascade. Degradation, aggregation and/or immune cells sequestration of the cargo protein and carrier LNPs would dramatically reduce or perhaps even prohibit genome editing events.
Next, in vivo systemic mRNA delivery using OCholB LNPs was tested using a similar intravenous injection protocol (FIG. 17C). Cre mRNA loaded 76-OCholB LNPs were injected at day 1 and day 5 (10 μg mRNA for each injection; 20 μg in total), and mice were sacrificed at day 14. All the major organs (heart, liver, spleen, lung and kidney) were collected and analyzed. […]

[2] = (−30)GFP-Cre loaded, IV day 1 and 5, 50 μg protein each
[3] = Cre mRNA loaded, IV day 1 and 5, 10 μg mRNA each

CCN(CC)CCCN(CCC(=O)OCCSSCCNC(=O)OC1CCC2(C)C(=CCC3C2CCC2(C)C(C(C)CCCC(C)C)CCC32)C1)CCC(=O)OCCSSCCNC(=O)OC1CCC2(C)C(=CCC3C2CCC2(C)C(C(C)CCCC(C)C)CCC32)C1 (stereo not drawn) [Lipidoid 81-OCholB]
size measured by TEM [1]: 216.9 nm

CC(C)CCCC(C)C1CCC2C3CC=C4CC(OC(=O)NCCSSCCOC(=O)CCN(CCC(=O)OCCSSCCNC(=O)OC5CCC6(C)C(=CCC7C6CCC6(C)C(C(C)CCCC(C)C)CCC76)C5)CCN5CCCC5)CCC4(C)C3CCC12C (stereo not drawn) [Lipidoid 76-OCholB]
genome editing efficacy in the spleen (Ai14 mice; [2]): Relative high genome editing efficacy | tdTomato positive cells in the spleen (Ai14 mice; [3]): significant amount of tdTomato positive cells | tdTomato signals in other organs (heart, liver, lung, kidney) (Ai14 mice; [3]): positive signals were not found

CC(C)CCCC(C)C1CCC2C3CC=C4CC(OC(=O)NCCSSCCOC(=O)CCN(C)CCN(CCN(C)CCC(=O)OCCSSCCNC(=O)OC5CCC6(C)C(=CCC7C6CCC6(C)C(C(C)CCCC(C)C)CCC76)C5)CCN(C)CCC(=O)OCCSSCCNC(=O)OC5CCC6(C)C(=CCC7C6CCC6(C)C(C(C)CCCC(C)C)CCC76)C5)CCC4(C)C3CCC12C (stereo not drawn) [Lipidoid 304-OCholB]
size measured by TEM [1]: 394.0 nm

CC(C)CCCC(C)C1CCC2C3CC=C4CC(OC(=O)NCCSSCCOC(=O)CCN(CCCN(C)C)CCC(=O)OCCSSCCNC(=O)OC5CCC6(C)C(=CCC7C6CCC6(C)C(C(C)CCCC(C)C)CCC76)C5)CCC4(C)C3CCC12C (stereo not drawn) [Lipidoid 80-OCholB]
genome editing efficacy in the lung (Ai14 mice; [2]): Relative high genome editing efficacy
